In US20160067211A1, “PHARMACEUTICAL COMPOSITION” (Eberhard Karls Universitaet Tuebingen Medizinische Fakultaet, priority 2013, published 2016):

Assays:
[1] = system: BLM melanoma cells; experiment: Real time cell monitoring assay (xCELLigence), BLM; type: cell-based, human; conditions: BLM, 20, 50 and 100 μM, 104 hours, vs. control
Experimental: FIG. 5: real time cell monitoring of BLM and SK-MEL-28 melanoma cells treated with 6-PN and 8-PN. (A) BML and SK-MEL-28 cells were treated 24 hours after seeding with different concentrations of 6-PN and 8-PN (20 μM, 50 μM and 100 μM) over a 104 hour time period. The cellular impedance was measured over the entire observation time using the xCELLigence™ SP system and is depicted by the cell index (CI). All CI-values were normalized shortly before the treatment started. […] As a positive control, Triton X-100 0.1% was used to induce cell death. Shown are the mean±SD of three independent experiments, each performed in triplicates (B, C). […]
The human melanoma cell lines BLM and SK-MEL-28 (2.5×10^3 cells/well) were seeded in 96 well plates. The cells were treated after 24 hours with different concentrations of 6-PN or 8-PN (20 μM, 50 μM and 100 μM) and monitored by measurements of electrical impedance in 15 minutes intervals for an overall time span of in total 104 hours using the xCELLigencer® SP Systems (Roche Applied Science). The cell index values were calculated using the RTCA software (1.0.0.0805). […]
The human metastatic melanoma cell lines BLM and SK-MEL-28 were treated once with rising concentrations of 6-PN or 8-PN (20 μM, 50 μM and 100 μM) and monitored continuously for an overall time span of 104 hours using a real time monitoring assay (FIG. 5A). […]

[2] = system: chicken embryos; experiment: Embryo toxicity testing in chicken embryos; type: in vivo; conditions: 100 μM in ethanol and PBS, after 72 hours
Experimental: FIG. 11: 6-PN and 8-PN reduce proliferation and invasion of BLM and LOXIMVI melanoma cells in human epidermal skin reconstructs and induce little embryo toxicity. (A) BLM melanoma cells and keratinocytes were seeded on top of a collagen matrix populated by fibroblasts. After 16 days a keratinizing stratified epithelium with a rudimentary corium is formed. […] (B) Similar results were obtained for LOXIMVI melanoma cells under the same treatment conditions. Only nests of dead, MIB1 negative LOXIMVI cells were detected after treatment with the PNs. (C) Chicken embryos stage 13HH (corresponding to 6 human gestational weeks) were exposed to DMSO as control, 100 μM 6-PN or 100 μM 8-PN to determine LD50 values. Survival rates after 24 hours, 48 hours, and 72 hours are depicted in a Kaplan-Meier plot.
Fertilized eggs of leghorn chickens (Gallus gallus domesticus) were incubated at 38° C. in a temperature-controlled, humidified brooder. […]
Due to the detected cytotoxic effects on cancer cells and of melanocytes in vitro, the determination of in vivo embryotoxicity was of great interest. To this end, 2-day chicken embryos were treated for 24, 48 and 72 hours with 100 μM 6-PN or 100 μM 8-PN to monitor survival as readout for lethal embryotoxicity (FIG. 11C). […]

[3] = biological target: MRP1 (Homo sapiens, UniProt P33527); conditions: cited from earlier work
[4] = system: prostate cancer cell line PC-3; conditions: PC-3 in vitro; cited from earlier work

Chain of MRP1 (P33527 whole entry): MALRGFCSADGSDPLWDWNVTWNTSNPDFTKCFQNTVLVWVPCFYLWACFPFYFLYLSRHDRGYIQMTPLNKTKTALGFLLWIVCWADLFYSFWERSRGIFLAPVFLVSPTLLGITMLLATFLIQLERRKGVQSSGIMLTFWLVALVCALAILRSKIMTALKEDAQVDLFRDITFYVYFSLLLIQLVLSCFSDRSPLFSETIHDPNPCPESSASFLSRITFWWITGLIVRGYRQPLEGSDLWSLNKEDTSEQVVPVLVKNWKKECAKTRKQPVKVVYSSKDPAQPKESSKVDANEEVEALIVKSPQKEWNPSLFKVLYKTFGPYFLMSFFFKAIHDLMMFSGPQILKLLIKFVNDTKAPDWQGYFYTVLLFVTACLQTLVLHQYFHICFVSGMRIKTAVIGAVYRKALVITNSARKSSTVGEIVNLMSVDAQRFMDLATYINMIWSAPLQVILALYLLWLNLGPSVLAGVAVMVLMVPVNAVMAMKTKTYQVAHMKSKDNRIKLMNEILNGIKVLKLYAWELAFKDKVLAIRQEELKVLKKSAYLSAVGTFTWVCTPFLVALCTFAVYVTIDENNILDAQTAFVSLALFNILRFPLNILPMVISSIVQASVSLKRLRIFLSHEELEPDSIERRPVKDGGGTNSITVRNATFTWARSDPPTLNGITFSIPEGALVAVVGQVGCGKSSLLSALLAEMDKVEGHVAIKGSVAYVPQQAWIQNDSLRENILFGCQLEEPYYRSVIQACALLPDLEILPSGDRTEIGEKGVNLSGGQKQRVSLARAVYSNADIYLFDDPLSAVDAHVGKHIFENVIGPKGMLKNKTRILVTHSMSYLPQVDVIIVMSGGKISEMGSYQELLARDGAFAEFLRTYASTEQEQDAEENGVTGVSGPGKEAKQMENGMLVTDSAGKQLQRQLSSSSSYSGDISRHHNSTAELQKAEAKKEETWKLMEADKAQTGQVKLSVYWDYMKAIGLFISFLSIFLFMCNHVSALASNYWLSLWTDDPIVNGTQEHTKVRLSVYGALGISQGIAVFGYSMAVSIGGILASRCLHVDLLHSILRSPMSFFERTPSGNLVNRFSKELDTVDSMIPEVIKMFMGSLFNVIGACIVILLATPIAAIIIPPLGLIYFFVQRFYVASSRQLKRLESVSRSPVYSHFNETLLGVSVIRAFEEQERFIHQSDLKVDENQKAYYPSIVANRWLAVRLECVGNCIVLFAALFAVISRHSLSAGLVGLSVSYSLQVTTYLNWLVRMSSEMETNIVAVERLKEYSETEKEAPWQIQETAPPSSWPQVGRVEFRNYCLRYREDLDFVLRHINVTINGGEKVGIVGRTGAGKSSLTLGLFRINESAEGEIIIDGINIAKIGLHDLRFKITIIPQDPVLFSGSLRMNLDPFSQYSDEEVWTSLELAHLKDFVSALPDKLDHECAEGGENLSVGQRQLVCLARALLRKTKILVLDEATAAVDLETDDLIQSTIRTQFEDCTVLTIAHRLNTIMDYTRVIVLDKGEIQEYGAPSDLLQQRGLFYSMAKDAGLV

## CC(C)=CCc1c(O)cc(O)c2c1OC(c1ccc(O)cc1)CC2=O (stereo not shown) [8-PN, 5,7-Dihydroxy-2-(4-hydroxy-phenyl)-8-(3-methyl-but-2-enyl)-chroman-4-one]
[1]
  normalized cell index (CI): descended over time
[2]
  embryos survived: 8/10
[3]
  inhibition of MRP1: inhibition
[4]
  antiproliferative effects: antiproliferative effects
